Experiments:
[1] = target: HDAC2 (Homo sapiens (Human), UniProt Q92769); test: HDAC enzyme assay, HDAC2; assay type: biochemical
Procedure: (§1) Compounds for testing were diluted in DMSO to 50 fold the final concentration and a ten point three fold dilution series was made. The compounds were diluted in assay buffer (50 mM HEPES, pH 7.4, 100 mM KCl, 0.001% Tween-20, 0.05% BSA, 20 μM TCEP) to 6 fold their final concentration. The HDAC enzymes (purchased from BPS Biosciences) were diluted to 1.5 fold their final concentration in assay buffer. The tripeptide substrate and trypsin at 0.05 μM final concentration were diluted in assay buffer at 6 fold their final concentration. The final enzyme concentrations used in these assays were 3.3 ng/ml (HDAC1), 0.2 ng/ml (HDAC2), 0.08 ng/ml (HDAC3) and 2 ng/ml (HDAC6). The final substrate concentrations used were 16 μM (HDAC1), 10 μM (HDAC2), 17 μM (HDAC3) and 14 μM (HDAC6).
(§2) Five μl of compounds and 20 μl of enzyme were added to wells of a black, opaque 384 well plate in duplicate. Enzyme and compound were incubated together at room temperature for 10 minutes. Five μ1 of substrate was added to each well, the plate was shaken for 60 seconds and placed into a Victor 2 microtiter plate reader. The development of fluorescence was monitored for 60 min and the linear rate of the reaction was calculated. The IC50 was determined using Graph Pad Prism by a four parameter curve fit.

[2] = target: HDAC3 (Homo sapiens (Human), UniProt O15379); test: HDAC enzyme assay, HDAC3; assay type: biochemical
Procedure: as §1, with “The HDAC enzymes (purchased from BPS Biosciences) were diluted to 1.5 fold their final concentration in assay buffer.” left out, “(HDAC6).” for “(HDAC6). The final substrate concentrations used were 16 μM (HDAC1), 10 μM (HDAC2), 17 μM (HDAC3) and 14 μM (HDAC6).”
as §2

[3] = target: HDAC1 (Homo sapiens (Human), UniProt Q13547); test: HDAC enzyme assay, HDAC1; assay type: biochemical
Procedure: as §1, §2

[4] = target: HDAC6 (Homo sapiens (Human), UniProt Q9UBN7); test: HDAC enzyme assay, HDAC6; assay type: biochemical
Procedure: as §1
as §2, with “fit. The IC50 values obtained for several of the compounds of this invention are found in Table 1.” for “fit.”

[5] = system: human CD34+ bone marrow cells; test: Cellular viability of cultured CD34+ bone marrow cells; details: 1 μM, treatment for 4 days
[6] = system: SH-SY5Y neuroblastoma cells; test: Neuroblastoma maturation gene expression, SH-SY5Y; assay type: cell-based; details: 2 days, 3 μM
Procedure: The following is a quick summary of the HDAC neuroblastoma maturation experiments. Adherent cells were plated into 12- or 24-well plates at 10^6 cells/well and allowed to adhere for 2-4 hours. Compounds were dispensed in DMSO at the indicated concentrations using an automated liquid handling system (Tecan D300) and incubated for the indicated times at 37° C. with 5% CO2. Cells were harvested and RNA extracted using the Qiagen RNeasy Mini Kit according to manufacture protocols. The RNA was quantified and relative expression levels were assessed using the Applied Biosystems TaqMan RNA-to-Ct Kit according to manufacture protocols using the indicated TaqMan probes.
The protocol for the maturation experiments was as follows. The day before the experiment, the cells were fed in the flask by doubling the media. The cells were then harvested by adding non-enzymatic cell dissociation media and incubating at 37° C. for 15 minutes. The cells were transferred to a 50 ml tube and pipet to create a single-cell suspension. The cells were washed with PBS buffer. The cells were then resuspended in complete media at 5×10^5 cells per ml. Next, 2 ml of cells were transferred to 24- or 12-well plates. […] The RNA concentration was recorded. The relative RNA levels were assessed using the Applied Biosystems TaqMan RNA-to-Ct kit according to manufacture protocols using the indicated Taqman probes.

[7] = system: H929 human myeloma cells; test: In vitro cell proliferation, MTS viability; assay type: cell-based; details: up to 7 days, relative to Day 0
Procedure: Cellular viability was assessed using Aqueous One MTS reagent at Days 0 (immediately after seeding), 3, 5, and 7.

Sequence of HDAC1 (Q13547 whole entry): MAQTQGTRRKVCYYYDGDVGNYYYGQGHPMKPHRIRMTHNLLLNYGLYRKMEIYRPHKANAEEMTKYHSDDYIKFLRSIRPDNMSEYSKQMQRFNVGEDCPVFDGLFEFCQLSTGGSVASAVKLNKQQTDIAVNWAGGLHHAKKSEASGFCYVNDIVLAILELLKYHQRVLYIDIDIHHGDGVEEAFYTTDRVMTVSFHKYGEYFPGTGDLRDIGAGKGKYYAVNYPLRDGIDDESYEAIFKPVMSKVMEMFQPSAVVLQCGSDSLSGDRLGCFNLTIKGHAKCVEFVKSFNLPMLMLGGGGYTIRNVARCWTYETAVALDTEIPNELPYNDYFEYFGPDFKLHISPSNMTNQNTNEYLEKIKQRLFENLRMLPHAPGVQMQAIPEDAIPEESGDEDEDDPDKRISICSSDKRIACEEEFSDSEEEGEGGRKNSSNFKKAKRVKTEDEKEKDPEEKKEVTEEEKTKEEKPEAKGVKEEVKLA
Sequence of HDAC6 (Q9UBN7 whole entry): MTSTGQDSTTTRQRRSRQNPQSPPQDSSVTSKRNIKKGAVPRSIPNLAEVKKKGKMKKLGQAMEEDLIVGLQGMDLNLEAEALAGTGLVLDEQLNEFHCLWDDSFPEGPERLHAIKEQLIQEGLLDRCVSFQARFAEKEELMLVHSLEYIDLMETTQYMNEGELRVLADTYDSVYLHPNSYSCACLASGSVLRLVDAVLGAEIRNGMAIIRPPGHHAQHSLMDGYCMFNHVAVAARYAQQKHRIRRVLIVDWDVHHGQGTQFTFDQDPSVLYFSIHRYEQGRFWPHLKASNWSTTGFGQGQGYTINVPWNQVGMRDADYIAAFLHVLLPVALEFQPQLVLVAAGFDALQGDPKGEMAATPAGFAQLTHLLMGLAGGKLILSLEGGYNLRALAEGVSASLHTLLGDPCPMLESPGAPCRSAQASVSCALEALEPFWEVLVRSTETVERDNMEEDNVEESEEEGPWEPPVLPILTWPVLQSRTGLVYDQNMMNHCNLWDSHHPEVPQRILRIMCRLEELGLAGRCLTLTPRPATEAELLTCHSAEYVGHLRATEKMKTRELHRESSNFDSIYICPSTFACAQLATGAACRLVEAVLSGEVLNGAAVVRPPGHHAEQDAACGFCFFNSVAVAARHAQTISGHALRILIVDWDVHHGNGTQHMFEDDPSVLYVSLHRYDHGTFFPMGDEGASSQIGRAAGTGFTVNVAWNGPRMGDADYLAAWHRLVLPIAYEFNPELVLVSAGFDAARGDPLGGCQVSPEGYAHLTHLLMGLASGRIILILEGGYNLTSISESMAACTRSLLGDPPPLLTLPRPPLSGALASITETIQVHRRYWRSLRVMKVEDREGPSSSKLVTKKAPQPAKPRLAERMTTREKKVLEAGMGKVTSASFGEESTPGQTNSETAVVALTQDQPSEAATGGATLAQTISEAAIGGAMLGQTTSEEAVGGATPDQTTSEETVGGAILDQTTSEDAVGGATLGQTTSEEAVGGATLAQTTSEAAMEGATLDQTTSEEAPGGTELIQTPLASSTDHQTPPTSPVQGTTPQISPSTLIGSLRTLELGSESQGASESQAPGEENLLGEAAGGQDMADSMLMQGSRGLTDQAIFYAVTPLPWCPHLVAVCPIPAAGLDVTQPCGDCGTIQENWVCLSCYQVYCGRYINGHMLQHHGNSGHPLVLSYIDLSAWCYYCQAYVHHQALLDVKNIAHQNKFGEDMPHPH
Sequence of HDAC2 (Q92769 whole entry): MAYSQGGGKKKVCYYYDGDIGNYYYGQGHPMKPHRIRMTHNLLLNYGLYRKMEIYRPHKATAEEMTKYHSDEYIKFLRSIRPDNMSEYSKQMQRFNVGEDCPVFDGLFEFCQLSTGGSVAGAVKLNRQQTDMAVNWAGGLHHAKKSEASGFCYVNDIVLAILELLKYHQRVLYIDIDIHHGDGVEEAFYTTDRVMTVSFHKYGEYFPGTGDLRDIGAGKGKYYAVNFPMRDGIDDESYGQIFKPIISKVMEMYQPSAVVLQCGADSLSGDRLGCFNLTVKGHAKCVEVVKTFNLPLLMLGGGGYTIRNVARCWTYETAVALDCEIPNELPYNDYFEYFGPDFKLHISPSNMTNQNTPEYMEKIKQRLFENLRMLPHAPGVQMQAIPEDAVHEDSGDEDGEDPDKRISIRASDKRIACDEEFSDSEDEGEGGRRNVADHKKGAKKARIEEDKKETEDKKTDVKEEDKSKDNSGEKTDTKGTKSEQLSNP
Sequence of HDAC3 (O15379 whole entry): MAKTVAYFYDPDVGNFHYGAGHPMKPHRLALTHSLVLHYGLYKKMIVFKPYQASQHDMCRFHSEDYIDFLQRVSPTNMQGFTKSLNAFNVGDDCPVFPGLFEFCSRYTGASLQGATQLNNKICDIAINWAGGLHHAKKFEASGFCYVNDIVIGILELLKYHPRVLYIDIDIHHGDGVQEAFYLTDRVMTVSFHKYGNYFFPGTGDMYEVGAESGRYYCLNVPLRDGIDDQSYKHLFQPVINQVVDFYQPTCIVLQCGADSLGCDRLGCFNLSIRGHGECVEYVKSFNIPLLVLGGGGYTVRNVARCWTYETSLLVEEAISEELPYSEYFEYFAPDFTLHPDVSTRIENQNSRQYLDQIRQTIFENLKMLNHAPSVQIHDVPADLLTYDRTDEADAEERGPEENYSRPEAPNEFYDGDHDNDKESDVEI
Sequence of HDAC3 (Q9Y618 395-489 partner): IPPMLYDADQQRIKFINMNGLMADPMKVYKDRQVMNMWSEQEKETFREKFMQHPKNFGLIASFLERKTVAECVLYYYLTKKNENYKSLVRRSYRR

- IC50 [1]: 34 nM
- IC50 [2]: 1010 nM
- IC50 [3]: 38 nM
- selectivity for HDAC1 and 2 ([3]; relative to HDAC3): 30 fold
- IC50 [4]: 1.9 nM
SMILES: O=C(NO)c1cnc(NC2(c3ccccc3)CCN(C(=O)Nc3ccccc3)CC2)nc1 [Compound 001, N-hydroxy-2-((4-phenyl-1-(phenylcarbamoyl)piperidin-4-yl)amino)pyrimidine-5-carboxamide]
- decrease in cells viability [5]: 1.2 fold
- fold change of genes associated with maturation [6]: induces gene expression changes that are consistent with maturation
- doses resulting in a net decrease in the viability of H929 cells [7]: over 3 uM

Reference: patent publication US9278963B2, “Pyrimidine hydroxy amide compounds as histone deacetylase inhibitors” (Acetylon Pharmaceuticals, Inc., priority 2013, dated 2016)
